The source of these data is patent EP3866826B1, “ANTIMICROBIAL PEPTIDES AND METHODS OF USING THE SAME” (priority 2018, dated 2020).

Where no end group is shown, it is not given here.

One data set relates to L929 fibroblast cells. Description: Cytotoxicity to mammalian cells, cell viability (FIG. 3C). The class given is cell-based. The protocol:
The rapid destruction of pathogenic cells by potent broad-spectrum topical anti-infectives infer a theoretical reduced likelihood of developing bacterial resistance. […] Cell viability was performed using bioluminescent strains of P. aeruginosa 19660 (FIG. 3A), S. aureus 49525 (FIG. 3B) & L929 fibroblast cells (FIG. 3C) and imaged with the IVIS Lumina system. Data represents the mean of 3 measurements.

Data set [1] in a line: Physiochemical properties of RP557 (hydrophilicity, solubility, pH stability). The class given is physicochemical. The note with it: extremes of pH (<4). As for the experimental part: (§1) Exemplary AMP RP557 was prepared in one gram lots at 98% purity or better. […] Furthermore, advances in solid and solution phase peptide chemistry has enabled Good Manufacturing Practice (GMP) material to be produced rapidly, economically in high yield and purity.

A further data set concerns S. aureus ATCC 6538. Description: Polymicrobial infected full-thickness thermal porcine burn model, bacterial counts (FIG. 6B). The class given is in vivo. The note with it: pig, single topical application, sampled after 24 hours. The protocol:
(§2) From the in vitro screening assays three AMPs were selected for further evaluation in a qualified porcine burn wound model infected with P. aeruginosa and S. aureus. Full thickness wounds were created with heated brass rod and 2cm trephine: approximately 10 minutes after homeostasis, wounds were infected with a 2:2:1 mixture of S. aureus, P. aeruginosa and Fuscobacterium ssp. Treatment of infected wounds began 24 hours post infection to allow for biofilm formation.
(§3) Full thickness wounds were created with a heated brass rod and a trephine on the back of anesthetized pigs followed by infection with 2:2:1 mixture of S. aureus ATCC 6538 (FIG. 6B) and P. aeruginosa (porcine isolate) (FIG. 6A) and fusobacterium ssp. After 3 hours, 0, 0.1, 0.2, 1 or 2% RP557 were applied. After 24 hours, wounds were sampled by punch biopsy and bacterial counts, expressed as log (Colony Forming Units, CFUs/g) evaluated. Data is expressed as mean±SE of 8 replicates. Statistical significance, compared to vehicle, determined by one-way ANOVA followed by Dunnett's test (**p < 0.01, ****p < 0.0001).

In the next data set the test system is P. aeruginosa 27853. Description: Resistance development by serial passage at sub-inhibitory concentrations, 30 passages (FIG. 4). The class given is cell-based. The protocol:
(§4) FIG. 4A to 4B. […] Sub-inhibitory concentrations of RP557, gentamicin and clindamycin were incubated with P. aeruginosa 27853 and S. aureus 29213 for 24 hours. Bacteria showing growth in the highest concentration were re-passaged in fresh dilutions containing sub-minimum inhibitory concentration (MIC) levels of each component for 30 consecutive passages; means are shown.

The next data set relates to S. aureus 29213. The data set is described as above. The class given is cell-based. As for the experimental part: as §4
The subject of data set [2] is gram-negative bacteria; A. baumannii and P. aeruginosa; gram-positive bacteria, S. aureus and MRSA and fungal strains; C. albicans, C. parapsilosis, C. krusei …. Description: Antimicrobial activity against multiple clinical isolates of bacteria and fungal strains. The class given is cell-based. As for the experimental part:
Thirty-four AMPs were synthesized and evaluated in three iterative rounds. Each AMP was evaluated for antimicrobial potency against 11 strains of bacteria, 7 strains of fungi and their cytotoxicity determined using L929 fibroblasts and human keratinocytes. The AMPs were evaluated for biofilm eradication and ability to induce antimicrobial resistance.

The nature of data set [3]: Stability in serum, monitored via LC-MS/MS. The class given is in vitro ADME. The note with it: human serum for 72 hrs at 37°C monitored via LC-MS/MS. As for the experimental part:
as §1

A further data set has as its system Candida 17-88 biofilm. Put plainly: Inhibition of preformed biofilm, metabolic evaluation using XTT (FIG. 5). The class given is cell-based, Candida albicans. The note with it: added to preformed Candida 17-88 biofilm for 24 hours. The protocol:
Fluconazole or RP557 were added to preformed Candida 17-88 biofilm for 24 hours and biofilm inhibition evaluated via metabolic evaluation using XTT, 2,3-bis (2-methoxy-4-nitro-5-sulfophenyl) [phenyl-amino)carbonyl]-2H. Data represent the mean±SD of triplicate measurements and statistical significance, compared to vehicle control, determined by one-way ANOVA followed by Dunnett's test (*p < 0.05, **p < 0.01, and ***p < 0.001).
In general terms: Formazan colour is commonly taken as a measure of viable cells.

Data set [4] has as its system P. aeruginosa (porcine isolate). Description: Polymicrobial infected full-thickness thermal porcine burn model, bacterial counts (FIG. 6A). The class given is in vivo. The note with it: pig, single dose, 2% RP557 (p<0.0001), sampled after 24 hours. The protocol: as §2, §3
The next data set has as its system C. albicans (ATCC 44858). Description: Vaginal infection rodent model of vulvovaginal candidiasis, fungal counts (FIG. 8). The class given is in vivo. The note with it: rats, 20 mg/mL IVG at 0.1 mL/rat twice daily for 3 days from 48 hr after infection, CFUs on Day 5 (p < 0.0001). The protocol: FIG. 8A to 8B. RP557 topical treatment reduces rodent vaginal candidiasis. Effects of RP557, miconazole and oral fluconazole in the C. albicans (ATCC 44858) vaginal infection rodent model. On Day 0, rats were inoculated intravaginally (IVG) with C. albicans at 1.46 x 10^7 CFU/rat. RP557 and miconazole at 20 mg/mL were administered IVG at 0.1 mL/rat twice daily at 8 hr intervals starting from 48 hr after infection for 3 days. CFUs were evaluated on Day 5 with limit of detection (LOD) 0.7 CFU/rat. Significant difference, compared to vehicle, determined by one-way ANOVA followed by Dunnett's test (*p < 0.05, ****p < 0.0001). A separate group receiving oral fluconazole; *p < 0.05 versus 0.1 and 10 mg/kg fluconazole.

The test system of data set [5] is S. aureus, P. aeruginosa and Fuscobacterium ssp. Description: Pharmacodynamic response in biofilm associated wounds, CFU counts of punch biopsies (FIG. 7). The note with it: 2% RP557 applied 24 hours post inoculation; biopsies at 30 min, 180 min and 24 hours post treatment. The class given is in vivo. As for the experimental part:
as §2
FIG. 7A-7B Pharmacodynamic Response to RP557. Twenty four hours post bacterial inoculation biofilm associated wounds were treated with 2% RP557. Punch biopsies were taken at 30 min, 180 min and 24 hours post treatment, homogenized, plated and CFUs counted. Statistical significance was calculated using the Holm-Sidak method. *p<0.05, ***p<0.001, ****p<0.0001, dAMP vs Control.

On to “RFCWKVCYKGICFKKCK (disulfide (positions not given here)) [RP557, 17 amino acids, hairpin structure formed by two disulfide bonds]”, for which the “cytotoxicity to mammalian cells” value with L929 fibroblast cells is recorded as “not cytotoxic”. In addition, the “stability at extremes of pH” value in data set [1] is given as “stable”. For the same sequence, the “S. aureus CFU counts” value is given as 2.11±1.75 log CFU/g tissue in the data set with S. aureus ATCC 6538 (0.2% RP557 (p < 0.01)) and 1.46±2.05 log CFU/g tissue in the data set with S. aureus ATCC 6538 (1% RP557 (p < 0.0001)). The “susceptibility of the resistant strain at the end of 30 serial passages (cross resistance)” value in the data set on P. aeruginosa 27853 (gentamicin-resistant P. aeruginosa) and in the data set on S. aureus 29213 (clindamycin-resistant S. aureus) was “readily susceptible” throughout. Further, the development of resistance entry is on record as “did not develop resistance” in the data set on P. aeruginosa 27853 (sub-inhibitory concentrations, 30 consecutive passages, P. aeruginosa 27853) and “did not develop resistance” with S. aureus 29213 (sub-inhibitory concentrations, 30 consecutive passages, S. aureus 29213). Besides, the antimicrobial activity entry in data set [2] is on record as “broad-spectrum antimicrobial activity”. Also, the stability in serum entry in [3] is listed as “stable in serum”. In addition, the biofilm inhibition entry in the data set with Candida 17-88 biofilm was “potent inhibitor”. In addition, the “number of viable P. aeruginosa bacteria” value in data set [4] is on record as 1.96±1.64 log CFU/g tissue. Also, in the data set with C. albicans (ATCC 44858), the “fungal counts relative to the vehicle control group” value is recorded as “significant reductions”. The “pharmacodynamic response, CFUs in wounds” value in data set [5] is “Kills Infection Throughout a 24 Hour Period”.
